Experimental data as given in PubChem BioAssay AID1919009 (Molecular Pharmacology Branch, DTP, NCI, 2023).
pIC50: −log10 of the molar value. Values belong to the compound of their own block, whether it stands above or below them.

System: K24384-001-R-PDC complex spheroid growth
Experiment: Anticancer human tumor K24384-001-R-PDC patient-derived pancreatic adenocarcinoma cell line growth inhibition [AhR]
Conditions: for pIC50: curve of first compound; for viability, T/C: stronger effect = lower value
Summary of the method: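 Complex tumor spheroids co-cultured with HUVEC and human MSC stroma; AhR antagonists tested in combination with standard-of-care and investigational agents. Top concentration at or near clinical Cmax (else 10 microM), half-log dilutions; growth expressed as percent test/control.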

[1] = second compound 0.1 µM, first compound 0.000949 µM
[2] = second compound 0.1 µM, first compound 0.003 µM
[3] = second compound 0.1 µM, first compound 0.00949 µM
[4] = second compound 0.1 µM, first compound 0.03 µM
[5] = second compound 0.1 µM, first compound 0.0949 µM
[6] = second compound 0.1 µM, first compound 0.3 µM
[7] = second compound 0.316 µM, first compound 0.000949 µM
[8] = second compound 0.316 µM, first compound 0.003 µM
[9] = second compound 0.316 µM, first compound 0.00949 µM
[10] = second compound 0.316 µM, first compound 0.03 µM
[11] = second compound 0.316 µM, first compound 0.0949 µM
[12] = second compound 0.316 µM, first compound 0.3 µM
[13] = second compound 1 µM, first compound 0.000949 µM
[14] = second compound 1 µM, first compound 0.003 µM
[15] = second compound 1 µM, first compound 0.00949 µM
[16] = second compound 1 µM, first compound 0.03 µM
[17] = second compound 1 µM, first compound 0.0949 µM
[18] = second compound 1 µM, first compound 0.3 µM
[19] = second compound 3.16 µM, first compound 0.000949 µM
[20] = second compound 3.16 µM, first compound 0.003 µM
[21] = second compound 3.16 µM, first compound 0.00949 µM
[22] = second compound 3.16 µM, first compound 0.03 µM
[23] = second compound 3.16 µM, first compound 0.0949 µM
[24] = second compound 3.16 µM, first compound 0.3 µM
[25] = second compound 10 µM, first compound 0.000949 µM
[26] = second compound 10 µM, first compound 0.003 µM
[27] = second compound 10 µM, first compound 0.00949 µM
[28] = second compound 10 µM, first compound 0.03 µM
[29] = second compound 10 µM, first compound 0.0949 µM
[30] = second compound 10 µM, first compound 0.3 µM
[31] = second compound 0.1 µM, first compound 0.0316 µM
[32] = second compound 0.1 µM, first compound 0.1 µM
[33] = second compound 0.1 µM, first compound 0.316 µM
[34] = second compound 0.1 µM, first compound 1 µM
[35] = second compound 0.1 µM, first compound 3.16 µM
[36] = second compound 0.1 µM, first compound 10 µM
[37] = second compound 0.316 µM, first compound 0.0316 µM
[38] = second compound 0.316 µM, first compound 0.1 µM
[39] = second compound 0.316 µM, first compound 0.316 µM
[40] = second compound 0.316 µM, first compound 1 µM
[41] = second compound 0.316 µM, first compound 3.16 µM
[42] = second compound 0.316 µM, first compound 10 µM
[43] = second compound 1 µM, first compound 0.0316 µM
[44] = second compound 1 µM, first compound 0.1 µM
[45] = second compound 1 µM, first compound 0.316 µM
[46] = second compound 1 µM, first compound 1 µM
[47] = second compound 1 µM, first compound 3.16 µM
[48] = second compound 1 µM, first compound 10 µM
[49] = second compound 3.16 µM, first compound 0.0316 µM
[50] = second compound 3.16 µM, first compound 0.1 µM
[51] = second compound 3.16 µM, first compound 0.316 µM
[52] = second compound 3.16 µM, first compound 1 µM
[53] = second compound 3.16 µM, first compound 3.16 µM
[54] = second compound 3.16 µM, first compound 10 µM
[55] = second compound 10 µM, first compound 0.0316 µM
[56] = second compound 10 µM, first compound 0.1 µM
[57] = second compound 10 µM, first compound 0.316 µM
[58] = second compound 10 µM, first compound 1 µM
[59] = second compound 10 µM, first compound 3.16 µM
[60] = second compound 10 µM, first compound 10 µM
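Wherever viability, T/C is given: percent of DMSO vehicle-treated spheroid viability set as 100%.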

Structure (SMILES): Nc1ccccc1NC(=O)c1ccc(CNC(=O)OCc2cccnc2)cc1 + Cc1cncc(-c2nc(NCCc3c[nH]c4ccccc34)c3ncn(C(C)C)c3n2)c1
pIC50 (second compound 0.1 µM): 5.76
pIC50 (second compound 0.316 µM): 5.96
pIC50 (second compound 1 µM): 5.82
pIC50 (second compound 3.16 µM): 6.02
pIC50 (second compound 10 µM): > 7.50
viability, T/C [31]: 90%
viability, T/C [32]: 86.7%
viability, T/C [33]: 79.6%
viability, T/C [34]: 69.3%
viability, T/C [35]: 30.3%
viability, T/C [36]: 6.17%
viability, T/C [37]: 111%
viability, T/C [38]: 108%
viability, T/C [39]: 77.7%
viability, T/C [40]: 48.3%
viability, T/C [41]: 31%
viability, T/C [42]: 3.5%
viability, T/C [43]: 111%
viability, T/C [44]: 99.8%
viability, T/C [45]: 87%
viability, T/C [46]: 56.6%
viability, T/C [47]: 33.6%
viability, T/C [48]: 2.82%
viability, T/C [49]: 77.6%
viability, T/C [50]: 93.2%
viability, T/C [51]: 61.9%
viability, T/C [52]: 43%
viability, T/C [53]: 33.1%
viability, T/C [54]: 1.51%
viability, T/C [55]: 15.2%
viability, T/C [56]: 10.7%
viability, T/C [57]: 7.68%
viability, T/C [58]: 5.34%
viability, T/C [59]: 4.19%
viability, T/C [60]: 0.39%

Structure (SMILES): O=C(C=Cc1cccc(S(=O)(=O)Nc2ccccc2)c1)NO + Cc1cncc(-c2nc(NCCc3c[nH]c4ccccc34)c3ncn(C(C)C)c3n2)c1
pIC50 (second compound 0.1 µM): 5.74
pIC50 (second compound 0.316 µM): 5.68
pIC50 (second compound 1 µM): 5.63
pIC50 (second compound 3.16 µM): 5.63
pIC50 (second compound 10 µM): > 7.50
viability, T/C [31]: 107%
viability, T/C [32]: 120%
viability, T/C [33]: 108%
viability, T/C [34]: 74.5%
viability, T/C [35]: 28.2%
viability, T/C [36]: 4.88%
viability, T/C [37]: 139%
viability, T/C [38]: 138%
viability, T/C [39]: 135%
viability, T/C [40]: 87.9%
viability, T/C [41]: 30.3%
viability, T/C [42]: 4.55%
viability, T/C [43]: 129%
viability, T/C [44]: 141%
viability, T/C [45]: 145%
viability, T/C [46]: 85.6%
viability, T/C [47]: 41.1%
viability, T/C [48]: 5.39%
viability, T/C [49]: 118%
viability, T/C [50]: 118%
viability, T/C [51]: 111%
viability, T/C [52]: 75.2%
viability, T/C [53]: 41.9%
viability, T/C [54]: 6.54%
viability, T/C [55]: 28.9%
viability, T/C [56]: 20.4%
viability, T/C [57]: 17.7%
viability, T/C [58]: 9.39%
viability, T/C [59]: 10.3%
viability, T/C [60]: 2.79%

Structure (SMILES): O=C(c1cc(Cc2n[nH]c(=O)c3ccccc23)ccc1F)N1CCN(C(=O)C2CC2)CC1 + Cc1cncc(-c2nc(NCCc3c[nH]c4ccccc34)c3ncn(C(C)C)c3n2)c1
pIC50 (second compound 0.1 µM): < 5.00
pIC50 (second compound 0.316 µM): < 5.00
pIC50 (second compound 1 µM): < 5.00
pIC50 (second compound 3.16 µM): < 5.00
pIC50 (second compound 10 µM): > 7.50
viability, T/C [31]: 128%
viability, T/C [32]: 135%
viability, T/C [33]: 140%
viability, T/C [34]: 96.3%
viability, T/C [35]: 78.5%
viability, T/C [36]: 82.5%
viability, T/C [37]: 155%
viability, T/C [38]: 157%
viability, T/C [39]: 143%
viability, T/C [40]: 117%
viability, T/C [41]: 106%
viability, T/C [42]: 90.5%
viability, T/C [43]: 137%
viability, T/C [44]: 132%
viability, T/C [45]: 142%
viability, T/C [46]: 98.5%
viability, T/C [47]: 128%
viability, T/C [48]: 114%
viability, T/C [49]: 106%
viability, T/C [50]: 119%
viability, T/C [51]: 135%
viability, T/C [52]: 119%
viability, T/C [53]: 119%
viability, T/C [54]: 111%
viability, T/C [55]: 17.7%
viability, T/C [56]: 14%
viability, T/C [57]: 13.2%
viability, T/C [58]: 13.9%
viability, T/C [59]: 10.4%
viability, T/C [60]: 8.74%

The next compounds have a higher pIC50 (second compound 0.1 µM) than those just listed; values first:

pIC50 (second compound 0.1 µM): 8.12
pIC50 (second compound 0.316 µM): 7.95
pIC50 (second compound 1 µM): 7.97
pIC50 (second compound 3.16 µM): 8.15
pIC50 (second compound 10 µM): > 9.02
Structure (SMILES): CC(C)CC(NC(=O)C(Cc1ccccc1)NC(=O)c1cnccn1)B(O)O (stereo not given) + Cc1cncc(-c2nc(NCCc3c[nH]c4ccccc34)c3ncn(C(C)C)c3n2)c1
viability, T/C [1]: 112%
viability, T/C [2]: 83.3%
viability, T/C [3]: 46.1%
viability, T/C [4]: 1.55%
viability, T/C [5]: 0.43%
viability, T/C [6]: 0.56%
viability, T/C [7]: 107%
viability, T/C [8]: 95%
viability, T/C [9]: 58.9%
viability, T/C [10]: 1.17%
viability, T/C [11]: 0.65%
viability, T/C [12]: 0.45%
viability, T/C [13]: 116%
viability, T/C [14]: 106%
viability, T/C [15]: 56.6%
viability, T/C [16]: 0.7%
viability, T/C [17]: 0.26%
viability, T/C [18]: 0.31%
viability, T/C [19]: 83.9%
viability, T/C [20]: 97%
viability, T/C [21]: 36.1%
viability, T/C [22]: 0.65%
viability, T/C [23]: 2.21%
viability, T/C [24]: 0.22%
viability, T/C [25]: 21.9%
viability, T/C [26]: 24.2%
viability, T/C [27]: 12.7%
viability, T/C [28]: 0.35%
viability, T/C [29]: 1.63%
viability, T/C [30]: 1.52%

pIC50 (second compound 0.1 µM): 8.53
pIC50 (second compound 0.316 µM): 8.44
pIC50 (second compound 1 µM): 8.25
pIC50 (second compound 3.16 µM): 8.22
pIC50 (second compound 10 µM): > 9.02
Structure (SMILES): CCc1c2c(nc3ccc(O)cc13)-c1cc3c(c(=O)n1C2)COC(=O)[C@]3(O)CC + Cc1cncc(-c2nc(NCCc3c[nH]c4ccccc34)c3ncn(C(C)C)c3n2)c1
viability, T/C [1]: 67.3%
viability, T/C [2]: 48.4%
viability, T/C [3]: 33.4%
viability, T/C [4]: 34.9%
viability, T/C [5]: 28%
viability, T/C [6]: 16.8%
viability, T/C [7]: 68.9%
viability, T/C [8]: 47.1%
viability, T/C [9]: 37.6%
viability, T/C [10]: 35.9%
viability, T/C [11]: 23.9%
viability, T/C [12]: 14%
viability, T/C [13]: 76.9%
viability, T/C [14]: 59.1%
viability, T/C [15]: 41.5%
viability, T/C [16]: 32%
viability, T/C [17]: 26.4%
viability, T/C [18]: 16.8%
viability, T/C [19]: 60%
viability, T/C [20]: 52.6%
viability, T/C [21]: 49.2%
viability, T/C [22]: 29.8%
viability, T/C [23]: 21.7%
viability, T/C [24]: 13.9%
viability, T/C [25]: 5.03%
viability, T/C [26]: 5.63%
viability, T/C [27]: 6.51%
viability, T/C [28]: 3.31%
viability, T/C [29]: 4.86%
viability, T/C [30]: 3.7%

pIC50 (second compound 0.1 µM): 6.03
pIC50 (second compound 0.316 µM): 5.67
pIC50 (second compound 1 µM): < 5.00
pIC50 (second compound 3.16 µM): 5.00
pIC50 (second compound 10 µM): > 7.50
Structure (SMILES): COc1cc(Nc2ncc3c(n2)-c2ccc(Cl)cc2C(c2c(F)cccc2OC)=NC3)ccc1C(=O)O + Cc1cncc(-c2nc(NCCc3c[nH]c4ccccc34)c3ncn(C(C)C)c3n2)c1
viability, T/C [31]: 81.9%
viability, T/C [32]: 70.1%
viability, T/C [33]: 69.6%
viability, T/C [34]: 43.9%
viability, T/C [35]: 53.1%
viability, T/C [36]: 49.9%
viability, T/C [37]: 95%
viability, T/C [38]: 66.4%
viability, T/C [39]: 68%
viability, T/C [40]: 41.1%
viability, T/C [41]: 53.4%
viability, T/C [42]: 47.7%
viability, T/C [43]: 85.3%
viability, T/C [44]: 82.7%
viability, T/C [45]: 75.2%
viability, T/C [46]: 63%
viability, T/C [47]: 50.3%
viability, T/C [48]: 51.5%
viability, T/C [49]: 80.5%
viability, T/C [50]: 77.2%
viability, T/C [51]: 72.8%
viability, T/C [52]: 44.8%
viability, T/C [53]: 58.6%
viability, T/C [54]: 62.1%
viability, T/C [55]: 11.1%
viability, T/C [56]: 11.8%
viability, T/C [57]: 10.3%
viability, T/C [58]: 9.55%
viability, T/C [59]: 9.44%
viability, T/C [60]: 17%
